Data reported in the supplement of paper PMC10307832.

Experiments:
Test in all cases: relative viability (nuclei count vs DMSO), 5 days (fraction); higher = more cells survive
AZD8055 + Vorinostat = compound: COc1ccc(-c2ccc3c(N4CCOC[C@@H]4C)nc(N4CCOC[C@@H]4C)nc3n2)cc1CO [AZD8055] + O=C(CCCCCCC(=O)Nc1ccccc1)NO [Vorinostat] (partner 1 µM)
Method in brief: (§1)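 After 5 days of treatment, lung cancer cells in 1536-well plates were fixed and stained in a single step (final 0.05% Triton X-100, 1% formaldehyde, 1 ug/ml Hoechst) and their nuclei counted on 4× images. Treatment had been applied by pin tool the day after seeding as one drug alone or as a fixed anchor-drug dose with five library-drug doses (not always all listed) in √10 steps. Relative viability is the nuclei count of treated wells divided by that of vehicle wells, and values are medians of duplicate plates.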

AZD8055 + Dasatinib = compound: COc1ccc(-c2ccc3c(N4CCOC[C@@H]4C)nc(N4CCOC[C@@H]4C)nc3n2)cc1CO [AZD8055] + Cc1nc(Nc2ncc(C(=O)Nc3c(C)cccc3Cl)s2)cc(N2CCN(CCO)CC2)n1 [Dasatinib] (partner 0.075 µM)
Method in brief: as §1

AZD8055 + Pictilisib = compound: COc1ccc(-c2ccc3c(N4CCOC[C@@H]4C)nc(N4CCOC[C@@H]4C)nc3n2)cc1CO [AZD8055] + CS(=O)(=O)N1CCN(Cc2cc3nc(-c4cccc5[nH]ncc45)nc(N4CCOCC4)c3s2)CC1 [Pictilisib] (partner 1 µM)
Method in brief: as §1

AZD8055 + Crizotinib = compound: COc1ccc(-c2ccc3c(N4CCOC[C@@H]4C)nc(N4CCOC[C@@H]4C)nc3n2)cc1CO [AZD8055] + C[C@@H](Oc1cc(-c2cnn(C3CCNCC3)c2)cnc1N)c1c(Cl)ccc(F)c1Cl [Crizotinib] (partner 1 µM)
Method in brief: as §1

Cell Line	relative viability (AZD8055 + Vorinostat; first compound 0.01 µM)	relative viability (AZD8055 + Vorinostat; first compound 0.03162 µM)	relative viability (AZD8055 + Vorinostat; first compound 0.1 µM)	relative viability (AZD8055 + Vorinostat; first compound 0.3162 µM)	relative viability (AZD8055 + Vorinostat; first compound 1 µM)	relative viability (AZD8055 + Dasatinib; first compound 0.01 µM)	relative viability (AZD8055 + Dasatinib; first compound 0.03162 µM)	relative viability (AZD8055 + Dasatinib; first compound 0.1 µM)	relative viability (AZD8055 + Dasatinib; first compound 0.3162 µM)	relative viability (AZD8055 + Dasatinib; first compound 1 µM)	relative viability (AZD8055 + Pictilisib; first compound 0.01 µM)	relative viability (AZD8055 + Pictilisib; first compound 0.03162 µM)	relative viability (AZD8055 + Pictilisib; first compound 0.1 µM)	relative viability (AZD8055 + Pictilisib; first compound 0.3162 µM)	relative viability (AZD8055 + Pictilisib; first compound 1 µM)	relative viability (AZD8055 + Crizotinib; first compound 0.01 µM)	relative viability (AZD8055 + Crizotinib; first compound 0.03162 µM)	relative viability (AZD8055 + Crizotinib; first compound 0.1 µM)	relative viability (AZD8055 + Crizotinib; first compound 0.3162 µM)	relative viability (AZD8055 + Crizotinib; first compound 1 µM)
NCI-H1651	0.59	0.526	0.552	0.411	0.351	0.455	0.368	0.307	0.226	0.253	0.664	0.452	0.433	0.257	0.283	0.896	0.738	0.786	0.633	0.529
NCI-H1666	0.933	1.07	0.892	0.856	0.736	0.928	0.853	0.739	0.698	0.579	0.333	0.491	0.347	0.272	0.38	0.936	1.01	0.812	0.648	0.465
NCI-H1734	0.822	0.571	0.506	0.303	0.246	0.563	0.366	0.318	0.152	0.162	0.427	0.312	0.295	0.175	0.199	0.734	0.587	0.472	0.256	0.282
NCI-H1755	0.64	0.613	0.57	0.423	0.366	0.414	0.32	0.262	0.263	0.249	0.39	0.312	0.274	0.253	0.271	0.824	0.762	0.652	0.397	0.393
NCI-H1915	0.486	0.36	0.419	0.284	0.246	0.27	0.297	0.281	0.177	0.174	0.879	0.715	0.851	0.706	0.487	0.922	0.822	0.901	0.642	0.422
NCI-H1944	0.518	0.431	0.422	0.223	0.207	0.187	0.174	0.185	0.166	0.152	0.323	0.302	0.278	0.275	0.287	1.09	0.918	0.973	0.427	0.343
NCI-H1975	0.749	0.623	0.448	0.282	0.263	0.34	0.265	0.129	0.132	0.135	0.257	0.209	0.183	0.179	0.176	0.943	0.959	0.515	0.386	0.254
NCI-H1993	0.55	0.474	0.358	0.287	0.407	0.528	0.448	0.505	0.524	0.542	0.752	0.701	0.892	0.637	0.896	0.819	0.688	0.59	0.588	0.609
NCI-H2009	0.816	0.798	0.732	0.458	0.395	0.301	0.245	0.232	0.175	0.184	0.762	0.441	0.561	0.343	0.333	1.01	1.05	0.832	0.831	0.273
NCI-H2023	0.65	0.405	0.335	0.14	0.115	0.568	0.358	0.166	0.0954	0.103	0.215	0.195	0.137	0.12	0.116	0.521	0.507	0.339	0.119	0.119
NCI-H2085	0.645	0.554	0.49	0.44	0.363	0.205	0.201	0.199	0.217	0.195	0.458	0.394	0.347	0.319	0.346	0.927	0.805	0.639	0.359	0.315
NCI-H2087	0.679	1.03	0.734	0.152	0.223	0.957	0.637	0.792	0.292	0.216	1.06	0.704	0.574	0.446	0.328	1.21	0.972	0.801	0.415	0.485
NCI-H2126	0.82	0.739	0.505	0.496	0.405	0.535	0.5	0.464	0.281	0.316	0.478	0.52	0.385	0.362	0.415	0.997	1.02	0.926	0.617	0.494
NCI-H2170	0.815	0.734	0.487	0.271	0.226	0.557	0.558	0.333	0.205	0.197	0.273	0.255	0.213	0.222	0.23	1.2	1.07	0.641	0.394	0.376
NCI-H2228	0.918	0.541	0.416	0.271	0.242	0.429	0.358	0.136	0.144	0.171	0.244	0.273	0.159	0.263	0.287	0.39	0.229	0.286	0.173	0.302
NCI-H2347	0.424	0.66	0.406	0.304	0.352	0.307	0.29	0.252	0.235	0.213	0.65	0.601	0.357	0.322	0.428	0.601	0.509	0.402	0.332	0.531
